Results as given in patent US9193728B2, “Fused tetracyclic pyrido [4,3-B] indole and pyrido [3,4-B] indole derivatives and methods of use” (Medivation Technologies, Inc., priority 2010, dated 2015).

Assays:
[1] = target: T1, human recombinant serotonin (5-Hydroxytryptamine) 5-HT7 receptor (Homo sapiens, UniProt P34969); assay: Serotonin 5-HT7 radioligand binding ([3H]LSD); conditions: for inhibition at 0.1 µM / Serotonin (0.1 μM) 5-HT7, percentage inhibition of ligand binding: compound at 0.1 μM; for inhibition at 0.1 µM: read-out: Serotonin (0.1 μM) 5-HT7, percentage inhibition of ligand binding
T1 construct: expressed in transfected cells; host or cells: CHO
Experimental: To evaluate in radioligand binding assays the activity of compounds of the invention, human recombinant serotonin (5-Hydroxytryptamine) 5-HT7 receptor expressed in Chinese hamster ovary (CHO) cells (Roth, B. et al, J. Pharmacol. Exp. Ther. 268:1403, 1994; Shen, Y. et al, J. Biol. Chem. 268:18200, 1993) in a modified Tris-HCl buffer (50 mM Tris-HCl, pH 7.4, 10 mM MgCl2, 0.5 mM EDTA) was used. Compounds of invention were incubated with 5.5 nM [^3H]Lysergic acid diethylamide (LSD) for 120 min. at 25° C. Non-specific binding was estimated in the presence of 10 μM Serotonin (5-HT). Receptor proteins were filtered and washed, the filters were then counted to determine [^3H]LSD specifically bound. Compounds were screened at 1 μM or lower, using 1% DMSO as vehicle. Biochemical assay results are presented as the percent inhibition of specific binding in Table 4.

[2] = target: T2, human recombinant serotonin (5-Hydroxytryptamine) 5-HT2A receptor (Homo sapiens, UniProt P28223); assay: Serotonin 5-HT2A radioligand binding ([3H]Ketanserin); conditions: for inhibition at 0.1 µM / Serotonin (0.1 μM) 5-HT2A, percentage inhibition of ligand binding: compound at 0.1 μM; for inhibition at 0.1 µM: read-out: Serotonin (0.1 μM) 5-HT2A, percentage inhibition of ligand binding
T2 construct: expressed in transfected cells; host or cells: CHO-K1
Experimental: To evaluate in radioligand binding assays the activity of compounds of the invention, human recombinant serotonin (5-Hydroxytryptamine) 5-HT2A receptor expressed in Chinese hamster ovary (CHO)-K1 cells (Bonhaus, D. et al, Br. J. Pharmacol. 115:622, 1995; Saucier, C. et al, J. Neurochem. 68:1998, 1997) in a 50 mM Tris-HCl buffer, pH 7.4, was used. Compounds of the invention were incubated with 0.5 nM [^3H]Ketanserin for 60 min. at 25° C. Non-specific binding was estimated in the presence of 1 μM Mianserin. Receptor proteins were filtered and washed, the filters were then counted to determine [^3H]Ketanserin specifically bound. Compounds were screened at 1 μM or lower, using 1% DMSO as vehicle. Biochemical assay results are presented as the percent inhibition of specific binding in Table 4.

[3] = target: T3, human recombinant serotonin (5-Hydroxytryptamine) 5-HT2C receptor (Homo sapiens, UniProt P28335); assay: Serotonin 5-HT2C radioligand binding ([3H]Mesulergine); conditions: for inhibition at 0.1 µM / Serotonin (0.1 μM) 5-HT2C, percentage inhibition of ligand binding: compound at 0.1 μM; for inhibition at 0.1 µM: read-out: Serotonin (0.1 μM) 5-HT2C, percentage inhibition of ligand binding
T3 construct: expressed in transfected cells; host or cells: CHO-K1
T3 sequence (P28335 33-458): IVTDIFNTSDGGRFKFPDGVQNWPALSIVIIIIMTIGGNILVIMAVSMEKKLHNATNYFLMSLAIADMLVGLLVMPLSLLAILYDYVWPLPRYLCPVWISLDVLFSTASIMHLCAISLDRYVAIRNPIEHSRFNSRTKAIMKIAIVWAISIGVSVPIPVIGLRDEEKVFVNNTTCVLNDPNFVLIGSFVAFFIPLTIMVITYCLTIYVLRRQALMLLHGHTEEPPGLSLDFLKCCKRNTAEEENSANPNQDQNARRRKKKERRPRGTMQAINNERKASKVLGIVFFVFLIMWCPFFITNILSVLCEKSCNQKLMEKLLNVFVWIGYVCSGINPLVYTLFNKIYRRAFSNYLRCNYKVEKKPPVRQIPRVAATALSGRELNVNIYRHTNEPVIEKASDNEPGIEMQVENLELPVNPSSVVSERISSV
Experimental: To evaluate in radioligand binding assays the activity of compounds of the invention, human recombinant serotonin (5-Hydroxytryptamine) 5-HT2C receptor expressed in Chinese hamster ovary (CHO)-K1 cells (Wolf, W. et al, J. Neurochem. 69:1449, 1997) in a modified Tris-HCl buffer (50 mM Tris-HCl, pH 7.4, 0.1% Ascorbic Acid, 10 μM Pargyline) was used. Compounds of the invention were incubated with 1 nM [^3H]Mesulergine for 60 min. at 25° C. Non-specific binding was estimated in the presence of 1 μM Mianserin. Receptor proteins were filtered and washed, the filters were then counted to determine [^3H]Mesulergine specifically bound. Compounds were screened at 1 μM or lower, using 1% DMSO as vehicle. Biochemical assay results are presented as the percent inhibition of specific binding in Table 4.

[4] = target: T4, human recombinant adrenergic α2C receptor (Homo sapiens, UniProt P18825); assay: Adrenergic α2C radioligand binding ([3H]MK-912); conditions: compound at 0.1 μM; for inhibition at 0.1 µM: read-out: Adrenergic (0.1 μM) a2C, percentage inhibition of ligand binding
T4 construct: expressed in transfected cells; host or cells: insect Sf9 cells
T4 sequence (P18825 1-462): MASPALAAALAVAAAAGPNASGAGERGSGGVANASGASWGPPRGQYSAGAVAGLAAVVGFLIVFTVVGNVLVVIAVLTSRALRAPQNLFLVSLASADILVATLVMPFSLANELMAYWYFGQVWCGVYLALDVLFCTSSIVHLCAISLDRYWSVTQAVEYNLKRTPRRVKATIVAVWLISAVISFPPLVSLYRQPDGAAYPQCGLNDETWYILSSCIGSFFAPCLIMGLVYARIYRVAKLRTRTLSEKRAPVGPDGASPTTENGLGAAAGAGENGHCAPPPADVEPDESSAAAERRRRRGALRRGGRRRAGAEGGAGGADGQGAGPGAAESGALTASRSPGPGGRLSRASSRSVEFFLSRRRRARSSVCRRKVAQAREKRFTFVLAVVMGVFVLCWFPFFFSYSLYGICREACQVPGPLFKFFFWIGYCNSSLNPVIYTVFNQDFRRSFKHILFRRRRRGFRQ
Experimental: To evaluate in radioligand binding assays the activity of compounds of the invention, human recombinant adrenergic α2C receptor expressed in insect Sf9 cells (Uhlen, S. et al, J. Pharmacol. Exp. Ther. 271:1558, 1994) in a modified Tris-HCl buffer (50 mM Tris-HCl, pH 7.4, 12.5 mM MgCl2, 2 mM EDTA) was used. Compounds of the invention were incubated with 1 nM [^3H]MK-912 for 60 min. at 25° C. Non-specific binding was estimated in the presence of 10 μM WB-4101. Receptor proteins were filtered and washed, the filters were then counted to determine [^3H]MK-912 specifically bound. Compounds were screened at 1 μM or lower, using 1% DMSO as vehicle. Biochemical assay results are presented as the percent inhibition of specific binding in Table 3.

[5] = target: T5, human recombinant serotonin (5-Hydroxytryptamine) 5-HT5A receptor (Homo sapiens, UniProt P47898); assay: Serotonin 5-HT5A radioligand binding ([3H]LSD); conditions: compound at 0.1 μM; for inhibition at 0.1 µM: read-out: Serotonin (0.1 μM) 5-HT5A, percentage inhibition of ligand binding
T5 construct: expressed in transfected cells; host or cells: CHO-K1
Experimental: To evaluate in radioligand binding assays the activity of compounds of the invention, human recombinant serotonin (5-Hydroxytryptamine) 5-HT5A receptor expressed in Chinese hamster ovary (CHO)-K1 cells (Rees, S. et al, FEBS Lett. 355:242, 1994) in a modified Tris-HCl buffer (50 mM Tris-HCl, pH 7.4, 10 mM MgCl2, 0.5 mM EDTA) was used. Compounds of the invention were incubated with 1.7 nM [^3H]Lysergic acid diethylamide (LSD) for 60 min. at 37° C. Non-specific binding was estimated in the presence of 100 μM Serotonin (5-HT). Receptor proteins were filtered and washed, the filters were counted to determine [^3H]LSD specifically bound. Compounds were screened at 1 μM or lower, using 1% DMSO as vehicle. Biochemical assay results are presented as the percent inhibition of specific binding in Table 4.

T1 sequence (P34969 whole entry): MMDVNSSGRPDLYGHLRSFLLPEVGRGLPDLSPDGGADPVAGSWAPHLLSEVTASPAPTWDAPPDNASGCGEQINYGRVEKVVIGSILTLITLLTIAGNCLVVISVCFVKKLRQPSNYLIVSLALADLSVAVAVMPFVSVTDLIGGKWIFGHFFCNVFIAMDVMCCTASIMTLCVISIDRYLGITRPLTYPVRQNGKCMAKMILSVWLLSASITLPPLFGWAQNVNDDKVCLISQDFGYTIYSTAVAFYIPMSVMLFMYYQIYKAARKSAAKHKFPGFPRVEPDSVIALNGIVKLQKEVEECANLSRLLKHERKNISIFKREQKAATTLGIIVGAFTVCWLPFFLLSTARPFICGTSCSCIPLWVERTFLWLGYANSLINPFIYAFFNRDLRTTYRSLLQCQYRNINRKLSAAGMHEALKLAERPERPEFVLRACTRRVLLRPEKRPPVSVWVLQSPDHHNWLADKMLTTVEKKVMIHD
T2 sequence (P28223 whole entry): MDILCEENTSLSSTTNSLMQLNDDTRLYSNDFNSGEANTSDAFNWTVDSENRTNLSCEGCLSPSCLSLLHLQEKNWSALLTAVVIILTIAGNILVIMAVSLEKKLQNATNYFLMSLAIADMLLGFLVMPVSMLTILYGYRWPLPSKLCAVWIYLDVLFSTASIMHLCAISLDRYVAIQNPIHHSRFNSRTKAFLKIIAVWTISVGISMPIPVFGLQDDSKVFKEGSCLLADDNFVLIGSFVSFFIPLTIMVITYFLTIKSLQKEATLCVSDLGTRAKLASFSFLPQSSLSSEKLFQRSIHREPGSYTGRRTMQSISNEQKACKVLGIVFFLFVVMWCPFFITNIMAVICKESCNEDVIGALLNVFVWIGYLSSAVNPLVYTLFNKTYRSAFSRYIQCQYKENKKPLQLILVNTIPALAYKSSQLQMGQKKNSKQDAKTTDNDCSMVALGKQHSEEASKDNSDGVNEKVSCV
T5 sequence (P47898 whole entry): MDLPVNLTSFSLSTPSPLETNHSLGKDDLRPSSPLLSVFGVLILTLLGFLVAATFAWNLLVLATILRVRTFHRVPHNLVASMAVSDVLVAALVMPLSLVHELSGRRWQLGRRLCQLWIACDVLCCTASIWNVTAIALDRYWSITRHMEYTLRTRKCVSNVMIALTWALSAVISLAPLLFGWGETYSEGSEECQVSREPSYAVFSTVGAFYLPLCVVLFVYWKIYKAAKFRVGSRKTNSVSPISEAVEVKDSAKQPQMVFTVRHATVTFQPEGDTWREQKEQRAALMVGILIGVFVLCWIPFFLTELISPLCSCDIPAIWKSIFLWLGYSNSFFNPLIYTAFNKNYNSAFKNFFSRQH

Compound: Cc1cc2c3c(c1)c1c(n3CC(c3ccc(F)cc3)C2)CCN(C)C1 (centres unmarked) [Compound 3]
- inhibition at 1 µM ([1]; compound at 1 μM, read-out: Serotonin (1 μM) 5-HT7, percentage inhibition of ligand binding): 53%
- inhibition at 0.1 µM [2]: 69%
- inhibition at 1 µM ([2]; compound at 1 μM, read-out: Serotonin (1 μM) 5-HT2A, percentage inhibition of ligand binding): 94%
- inhibition at 0.1 µM [3]: 54%
- inhibition at 1 µM ([3]; compound at 1 μM, read-out: Serotonin (1 μM) 5-HT2C, percentage inhibition of ligand binding): 95%

Compound: Cc1cc2c3c(c1)c1c(n3CC(C)(c3ccc(C)nc3)OC(C)C2)CCN(C)C1 (centres unmarked) [Compound 160]
- inhibition at 0.1 µM [4]: 16%
- inhibition at 0.1 µM [5]: 2%
- inhibition at 0.1 µM [1]: 14%
- inhibition at 0.1 µM [2]: -4%
- inhibition at 0.1 µM [3]: 7%

Compound: Cc1cc2c3c(c1)c1c(n3CC(C)(c3ccc(C)nc3)OC2C)CCN(C)C1 (centres unmarked) [Compound 161]
- Adrenergic (0.1 μM) a2C, percentage inhibition of ligand binding [4]: 3%
- Serotonin (0.1 μM) 5-HT5A, percentage inhibition of ligand binding [5]: 4%
- Serotonin (0.1 μM) 5-HT7, percentage inhibition of ligand binding [1]: −8%
- Serotonin (0.1 μM) 5-HT2A, percentage inhibition of ligand binding [2]: −2%
- Serotonin (0.1 μM) 5-HT2C, percentage inhibition of ligand binding [3]: −4%

Compound: Cc1cc2c3c(c1)c1c(n3C[C@@](C)(c3ccncc3)O[C@H]2C)CCN(C)C1 [Compound 162]
- inhibition at 0.1 µM [4]: 13%
- inhibition at 0.1 µM [5]: 16%
- inhibition at 0.1 µM [1]: 5%
- inhibition at 0.1 µM [2]: 7%
- inhibition at 0.1 µM [3]: 6%

Compound: Cc1cc2c3c(c1)c1c(n3C[C@](C)(c3ccncc3)O[C@H]2C)CCN(C)C1 [Compound 163]
- inhibition at 0.1 µM [4]: 12%
- inhibition at 0.1 µM [5]: 10%
- inhibition at 0.1 µM [1]: -3%
- inhibition at 0.1 µM [2]: 3%
- inhibition at 0.1 µM [3]: 5%

Compound: Cc1cc2c3c(c1)c1c(n3CC(C)(c3ccc(C)nc3)OC2C)CCN(C)C1 (centres unmarked) [Compound 164]
- Adrenergic (0.1 μM) a2C, percentage inhibition of ligand binding [4]: −4%
- Serotonin (0.1 μM) 5-HT5A, percentage inhibition of ligand binding [5]: −22%
- Serotonin (0.1 μM) 5-HT7, percentage inhibition of ligand binding [1]: −12%
- Serotonin (0.1 μM) 5-HT2A, percentage inhibition of ligand binding [2]: 0%
- Serotonin (0.1 μM) 5-HT2C, percentage inhibition of ligand binding [3]: 2%

Compound: Cc1cc2c3c(c1)c1c(n3CC(C)(c3ccncc3)OC(C)C2)CCN(C)C1 (centres unmarked) [Compound 165]
- inhibition at 0.1 µM [4]: 20%
- inhibition at 0.1 µM [5]: 16%
- inhibition at 0.1 µM [1]: -2%
- inhibition at 0.1 µM [2]: 12%
- inhibition at 0.1 µM [3]: 14%
